The text below walks through data of patent US12576063B2, “Implantable drug delivery devices for localized drug delivery” (priority 2020, dated 2026).

A short description of series [1]: Solid tissue and prostate gland drug quantification 55 days post-implantation. The settings on record: for liver level: average; for whole prostate gland level: centre transverse section not included; for level in 5 mm punch biopsies surrounding device implants: prostate tissue within ~5 mm of device.
Procedure: (§1) In this study, three canines, at least fifteen months old, were employed. […] An 18-gauge brachytherapy needle (OD 1.27 mm) was used for device implantation. Clinical observations and body weight were recorded.
(§2) 55 days post-implantation, study animals were euthanized and underwent gross necropsy. […] Prostate glands were trimmed and cut in three section perpendicular to the urethra: a cranial (rostral) section, a 3-5 mm transverse section, and a caudal section. […] The transverse piece in its entirety was sent for histopathological evaluation.
The test system of the next series is prostate cancer cells. The settings on record: cited from earlier work.
Series [2] is described as follows: Plasma drug quantification after implantation of two devices into canine prostate. The settings on record: male, dog, in vivo. Also on record: species or system canines. As to the method: Clinical observations and body weight were recorded.
Placement of devices was confirmed by transrectal ultrasound during implantation and 1, 7, 14, and 28 days post-implantation.
Note that the plasma levels as shown in FIGS. 6A and 6B are in micrograms for the oral dose while the scale is in ng/mL for the device plasma levels.

A further series in a line: in vivo. As to conditions: male, dog.

Procedure for in vivo: as §1, §2

The IC50 is the concentration at which inhibition is half-maximal. Regarding `C[C@](O)(CS(=O)(=O)c1ccc(F)cc1)C(=O)Nc1ccc(C#N)c(C(F)(F)F)c1` [R-bicalutamide], in series [1], the “level in prostate tissue within ~5 mm of the device (molar)” value came out at 1623 ± 562 nM, the “whole prostate gland level (molar)” value worked out at 196.6 ± 23.5 nM, the liver level stood at 28 ± 9 ng/g and the “whole prostate gland level” value came out at 86 ± 10 ng/g. Besides, in series [1], the “level in 5 mm punch biopsies surrounding device implants” value amounted to 698 ± 242 ng/g. Also, the IC50 with prostate cancer cells was approximately 1 µM.
As to `C[C@@](O)(CS(=O)(=O)c1ccc(F)cc1)C(=O)Nc1ccc(C#N)c(C(F)(F)F)c1` [S-bicalutamide], in series [1], the liver level was 19 ± 7 ng/g, the “whole prostate gland level” value was 87 ± 11 ng/g and the “level in 5 mm punch biopsies surrounding device implants” value was 727 ± 259 ng/g.
`CC(O)(CS(=O)(=O)c1ccc(F)cc1)C(=O)Nc1ccc(C#N)c(C(F)(F)F)c1` (stereo not shown) [bicalutamide]: the “time to plasma steady state” value in series [2] was approximately 4 days. Moreover, the concentration at 55 day in “in vivo” (level in 5 mm punch biopsies surrounding device implants) is 1430 ± 501 ng/g; in “in vivo” (liver level) it was 47 ± 16 ng/g; in “in vivo” (whole prostate gland level), 172 ± 21 ng/g.
